{
  "source": "patent US8530636B2",
  "about": "“Method for regulating protein function in cells in vivo using synthetic small molecules” (priority 2008, dated 2013)",
  "test_system": "HCT116 tumors",
  "note": "Read-outs that look alike come from different tables or passages of the source.",
  "data": [
    {"substance": "1-[2-(3,4,5-trimethoxy-phenyl)-butyryl]-piperazine-2-carboxylic acid 3-(3,4-dimethoxy-phenyl)-1-[3-(2-morpholin-4-yl-ethoxy)-phenyl]-propyl ester [Shield1]", "values": [
      {"measurement": "Virus in the tumor (viral luciferase expression)", "setting": "Shield1 delayed until 3 days following virus", "result": "equivalent to those observed in animals treated with virus alone"},
      {"measurement": "Virus in the tumor (viral luciferase expression)", "setting": "Shield1 started prior to virus delivery", "result": "only modest levels of virus"},
      {"measurement": "Adverse physiological effects", "setting": "mouse, in vivo", "result": "no adverse physiological effects observed"},
      {"measurement": "Tumor burden compared to virus alone", "setting": "mouse, in vivo", "result": "significantly decreased tumor burden"},
      {"measurement": "Tumor responses", "setting": "mouse, in vivo", "result": "Seven of the eight animals demonstrated complete and durable responses"},
      {"measurement": "Tumor burden, Shield1 alone", "setting": "no virus", "result": "no effect on tumor burden"}
    ]}
  ]
}
